Consider 1 compound from ChEMBL document CHEMBL1122856, “Study on the inhibition of adenosine deaminase” (J Med Chem, 1985).

The structures appear in SMILES notation. pKi: −log10 of the molar value.

The target in the experiment is T1, Adenosine deaminase (Bos taurus, UniProt P56658).
T1 sequence (P56658 whole entry): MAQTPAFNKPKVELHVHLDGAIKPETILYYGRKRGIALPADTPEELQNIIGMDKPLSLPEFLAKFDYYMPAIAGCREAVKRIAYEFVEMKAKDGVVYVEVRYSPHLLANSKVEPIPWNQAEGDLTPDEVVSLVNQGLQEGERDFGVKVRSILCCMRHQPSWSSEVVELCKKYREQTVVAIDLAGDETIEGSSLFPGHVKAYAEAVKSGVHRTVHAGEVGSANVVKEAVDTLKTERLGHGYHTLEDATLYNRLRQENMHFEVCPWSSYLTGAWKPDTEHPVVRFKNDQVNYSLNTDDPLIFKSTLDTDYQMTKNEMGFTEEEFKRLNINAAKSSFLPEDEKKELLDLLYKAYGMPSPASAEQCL
Briefly: Ability to inhibit the deamination of adenosine by calf intestine adenosine deaminase.

For the compound `Cc1c([C@@H](C)O)ncn1C1O[C@H](CO)[C@@H](O)[C@H]1O` (stereo partly specified), the pKi was 4.21.

What is called pKi is the negative decadic logarithm of the Ki, by convention in mol/L.
